Assay results from the NIST ThermoML archive (doi:10.1016/j.jct.2004.12.014).
Numbers after ± are expanded uncertainties.

Experiments:
[1] = xn = mol fraction of the nth substance listed; details: 318.15 K, 101 kPa, Liquid
[2] = excess molar enthalpy (molar enthalpy of mixing); xn = mol fraction of the nth substance listed; details: 318.15 K, 101 kPa, Liquid

CCCCCCCCCCCCCCCCC [heptadecane] + CCC(=O)OC
Details | excess molar enthalpy [kJ/mol] | excess molar volume [m3/mol]
[1], x2 = 0.0755 | – | 3.32e-07 ± 1.7e-08
[1], x2 = 0.1644 | – | 6.94e-07 ± 1.9e-08
[1], x2 = 0.3049 | – | 1.182e-06 ± 2.1e-08
[1], x2 = 0.409 | – | 1.452e-06 ± 2.2e-08
[1], x2 = 0.5004 | – | 1.581e-06 ± 2.3e-08
[1], x2 = 0.5739 | – | 1.623e-06 ± 2.3e-08
[1], x2 = 0.6379 | – | 1.592e-06 ± 2.3e-08
[1], x2 = 0.6942 | – | 1.504e-06 ± 2.2e-08
[1], x2 = 0.7425 | – | 1.39e-06 ± 2.2e-08
[1], x2 = 0.7831 | – | 1.271e-06 ± 2.1e-08
[1], x2 = 0.8219 | – | 1.128e-06 ± 2.1e-08
[1], x2 = 0.8553 | – | 9.81e-07 ± 2e-08
[1], x2 = 0.8846 | – | 8.56e-07 ± 1.9e-08
[1], x2 = 0.9369 | – | 5.66e-07 ± 1.8e-08
[1], x2 = 0.9596 | – | 4.18e-07 ± 1.7e-08
[1], x2 = 0.9803 | – | 2.34e-07 ± 1.7e-08
[2], x2 = 0.0946 | 0.552 ± 0.01 | –
[2], x2 = 0.2186 | 1.16 ± 0.02 | –
[2], x2 = 0.3238 | 1.62 ± 0.027 | –
[2], x2 = 0.4115 | 1.91 ± 0.031 | –
[2], x2 = 0.4797 | 2.06 ± 0.034 | –
[2], x2 = 0.5289 | 2.12 ± 0.035 | –
[2], x2 = 0.5687 | 2.15 ± 0.035 | –
[2], x2 = 0.5996 | 2.15 ± 0.035 | –
[2], x2 = 0.6291 | 2.13 ± 0.035 | –
[2], x2 = 0.6637 | 2.09 ± 0.034 | –
[2], x2 = 0.6974 | 2.01 ± 0.033 | –
[2], x2 = 0.7327 | 1.89 ± 0.031 | –
[2], x2 = 0.7677 | 1.74 ± 0.029 | –
[2], x2 = 0.8042 | 1.55 ± 0.026 | –
[2], x2 = 0.8381 | 1.37 ± 0.023 | –
[2], x2 = 0.8741 | 1.13 ± 0.019 | –
[2], x2 = 0.909 | 0.896 ± 0.016 | –
[2], x2 = 0.9409 | 0.619 ± 0.012 | –
[2], x2 = 0.9721 | 0.315 ± 0.0075 | –

CCCCCCCCCCCCCCCCC [heptadecane] + CCOC(=O)CC
Details | excess molar enthalpy [kJ/mol] | excess molar volume [m3/mol]
[1], x2 = 0.066 | – | 2.51e-07 ± 1.7e-08
[1], x2 = 0.1449 | – | 5.19e-07 ± 1.8e-08
[1], x2 = 0.2675 | – | 8.82e-07 ± 2e-08
[1], x2 = 0.3677 | – | 1.105e-06 ± 2.1e-08
[1], x2 = 0.4535 | – | 1.215e-06 ± 2.1e-08
[1], x2 = 0.5272 | – | 1.268e-06 ± 2.1e-08
[1], x2 = 0.5954 | – | 1.278e-06 ± 2.1e-08
[1], x2 = 0.6524 | – | 1.237e-06 ± 2.1e-08
[1], x2 = 0.7503 | – | 1.094e-06 ± 2.1e-08
[1], x2 = 0.7915 | – | 9.93e-07 ± 2e-08
[1], x2 = 0.8304 | – | 8.71e-07 ± 2e-08
[1], x2 = 0.8626 | – | 7.59e-07 ± 1.9e-08
[1], x2 = 0.8973 | – | 6.31e-07 ± 1.8e-08
[1], x2 = 0.9257 | – | 4.92e-07 ± 1.8e-08
[1], x2 = 0.9523 | – | 3.54e-07 ± 1.7e-08
[1], x2 = 0.9771 | – | 1.83e-07 ± 1.6e-08
[2], x2 = 0.1049 | 0.523 ± 0.0098 | –
[2], x2 = 0.213 | 0.969 ± 0.017 | –
[2], x2 = 0.3031 | 1.3 ± 0.022 | –
[2], x2 = 0.3846 | 1.53 ± 0.025 | –
[2], x2 = 0.4607 | 1.68 ± 0.028 | –
[2], x2 = 0.5315 | 1.76 ± 0.029 | –
[2], x2 = 0.5885 | 1.76 ± 0.029 | –
[2], x2 = 0.6272 | 1.73 ± 0.028 | –
[2], x2 = 0.6888 | 1.62 ± 0.027 | –
[2], x2 = 0.7229 | 1.52 ± 0.025 | –
[2], x2 = 0.7635 | 1.4 ± 0.023 | –
[2], x2 = 0.8055 | 1.24 ± 0.021 | –
[2], x2 = 0.8479 | 1.06 ± 0.018 | –
[2], x2 = 0.8897 | 0.846 ± 0.015 | –
[2], x2 = 0.9313 | 0.577 ± 0.011 | –
[2], x2 = 0.9727 | 0.262 ± 0.0064 | –

CCCCCOC(=O)CC [pentyl propanoate] + CCCCCCC
Details | excess molar enthalpy [kJ/mol] | excess molar volume [m3/mol]
[1], x1 = 0.0556 | – | 6.6e-08 ± 1.6e-08
[1], x1 = 0.1092 | – | 1.1e-07 ± 1.6e-08
[1], x1 = 0.182 | – | 1.41e-07 ± 1.6e-08
[1], x1 = 0.217 | – | 1.68e-07 ± 1.6e-08
[1], x1 = 0.2721 | – | 1.85e-07 ± 1.6e-08
[1], x1 = 0.3275 | – | 1.96e-07 ± 1.6e-08
[1], x1 = 0.3857 | – | 1.98e-07 ± 1.6e-08
[1], x1 = 0.4428 | – | 1.92e-07 ± 1.6e-08
[1], x1 = 0.5013 | – | 1.78e-07 ± 1.6e-08
[1], x1 = 0.5611 | – | 1.59e-07 ± 1.6e-08
[1], x1 = 0.6204 | – | 1.37e-07 ± 1.6e-08
[1], x1 = 0.6824 | – | 1.03e-07 ± 1.6e-08
[1], x1 = 0.742 | – | 7.7e-08 ± 1.6e-08
[1], x1 = 0.8047 | – | 4.9e-08 ± 1.6e-08
[1], x1 = 0.8674 | – | 2.9e-08 ± 1.6e-08
[1], x1 = 0.9323 | – | 9e-09 ± 1.6e-08
[2], x1 = 0.0541 | 0.161 ± 0.0042 | –
[2], x1 = 0.1161 | 0.304 ± 0.0063 | –
[2], x1 = 0.1808 | 0.422 ± 0.0081 | –
[2], x1 = 0.2438 | 0.515 ± 0.0095 | –
[2], x1 = 0.3073 | 0.59 ± 0.011 | –
[2], x1 = 0.3672 | 0.635 ± 0.011 | –
[2], x1 = 0.4224 | 0.657 ± 0.012 | –
[2], x1 = 0.445 | 0.661 ± 0.012 | –
[2], x1 = 0.4906 | 0.666 ± 0.012 | –
[2], x1 = 0.5414 | 0.656 ± 0.012 | –
[2], x1 = 0.5976 | 0.625 ± 0.011 | –
[2], x1 = 0.6595 | 0.573 ± 0.01 | –
[2], x1 = 0.725 | 0.496 ± 0.0093 | –
[2], x1 = 0.7935 | 0.396 ± 0.0077 | –
[2], x1 = 0.8667 | 0.27 ± 0.0058 | –
[2], x1 = 0.9349 | 0.141 ± 0.0038 | –
